Measured values taken from publication PMC10606064, “2-Aminothiazole-Flavonoid Hybrid Derivatives Binding to Tau Protein and Responsible for Antitumor Activity in Glioblastoma” (International Journal of Molecular Sciences, 2023).
Like-named read-outs stand apart in the source and are kept apart here.

Assays:
[1] = system: GBM cells (U87, U251, U138, and T98G); experiment: MTT assay across the Tau-expressing GBM cell models; type: cell-based, human
Experimental: (§1) Cells harvested from sub-confluent monolayers were seeded at 15,000 cells per mL in a 96-well microtiter plate (Cambridge Technology, Labège, France) and cultured for 24 h under standard conditions. Standard medium was then replaced by fresh medium containing no drugs or compounds at different concentrations. The surviving cells were quantified after 72 h by the MTT assay, according to the manufacturer’s instructions. Briefly, 20 µL of 3-(4,5-diMethylThiazol-2-yl)-2,5diphenyl Tetrazolium bromide (MTT) solution at 5 mg.mL^−1 was added to cells for 3 h at 37 °C. The supernatant was discarded and replaced by 100 µL of dimethyl sulfoxide to dissolve formazan crystals. The absorbance was then read at 600 nm by spectrophotometry. For all concentrations of a given compound, cell viability was expressed as the percentage of the ratio between the mean absorbance of treated cells and the mean absorbance of untreated cells. Three independent experiments were performed, and the data were expressed as percentage of survival (using the untreated cells as 100%) and subjected to statistical analysis (n = 3). The IC50 was calculated using the Chou and Talalay method.

T98G glioblastoma cells = experiment: MTT cell viability assay, T98G; type: cell-based; conditions: Homo sapiens, 72 h, mean ± SEM, read-out: IC50 (metabolic activity)
Experimental: as §1

U87 glioblastoma cells = experiment: MTT cell viability assay, U87; type: cell-based, human; conditions: Homo sapiens; U87, 72 h, MTT; mean ± SEM; read-out: IC50 (metabolic activity)
Experimental: as §1

U251 glioblastoma cells = experiment: MTT cell viability assay, U251; type: cell-based; conditions: Homo sapiens, U-251, U251, 72 h, mean ± SEM, read-out: IC50 (metabolic activity)
Experimental: as §1

[2] = target: T1, Tau protein (full-length human Tau, hTau40) (Homo sapiens, UniProt P10636); experiment: Tau intrinsic fluorescence quenching, modified Stern–Volmer binding parameters; conditions: 5 µM Tau, buffer B pH 6.8, mean ± SD; for Kd: read-out: Equilibrium Binding Constants to Tau, KD
T1 construct: The full-length human Tau (hTau40) was expressed in a transformed E. coli BL21 (DE3) strain; made in house; host or cells: E. coli BL21 (DE3)
T1 sequence (P10636 1-441 isoform P10636-8): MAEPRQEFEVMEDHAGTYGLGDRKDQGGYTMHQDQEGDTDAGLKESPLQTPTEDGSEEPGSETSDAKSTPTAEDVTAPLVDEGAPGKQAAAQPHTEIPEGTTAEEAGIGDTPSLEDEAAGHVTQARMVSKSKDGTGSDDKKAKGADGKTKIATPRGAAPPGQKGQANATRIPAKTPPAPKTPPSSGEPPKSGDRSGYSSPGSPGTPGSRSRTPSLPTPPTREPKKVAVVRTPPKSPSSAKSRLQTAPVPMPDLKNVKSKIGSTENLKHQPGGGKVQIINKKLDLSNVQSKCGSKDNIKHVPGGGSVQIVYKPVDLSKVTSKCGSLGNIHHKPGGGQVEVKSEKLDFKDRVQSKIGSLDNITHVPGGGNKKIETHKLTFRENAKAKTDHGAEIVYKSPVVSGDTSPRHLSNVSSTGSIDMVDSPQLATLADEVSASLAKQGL
Experimental: Fluorescence measurements were performed with a Horiba Jobin Yvon FluoroMax-3 spectrofluorometer. […] For experiments, the excitation wavelength was fixed at 275 nm, and the emission spectra were recorded between 280 nm and 500 nm at room temperature. The inner filter effects were corrected according to Lakowicz as follows:F = Fobs × exp{(Aem + Aex)/2}(2) where Fobs and F are the observed and corrected fluorescence values at the emission wavelength of 303 nm. Aex and Aem are the absorptions at the excitation and emission wavelengths, respectively, calculated with A = ε.l.C, in which ε is the extinction coefficient of Tau, l is the path length of cuvette, and C is Tau concentration.
The total fluorescence in the absence of quencher (F0) is given by:F0 = F0a + F0b(4) where 0 refers to the fluorescence intensity in the absence of quencher.
In the presence of quencher, we defined fa as the fraction of the initial fluorescence of Tau accessible to compounds:fa = F0a/(F0a + F0b)(5)
Therefore, the intensity of the accessible fraction (fa) is decreased according to the Stern–Volmer equation, whereas the buried fraction is not quenched, as given by:F = {F0a/(1 + K.[Q])} + F0b(6)
Then, subtraction of Equations (6) and (4) yields:ΔF = F0 − F = F0a × {K.[Q]/(1 + K.[Q])}(7)
At last, inversion of Equation (7) followed by division into Equation (4) yields:F0/ΔF = {1/(fa.K.[Q])} + 1/fa(8)
We applied this modified form of the Stern–Volmer equation to graphically determine the values of fa and K. For our experiments, we plotted F0/ΔF against 1/[Q], then we determined the fa value at the point of intersection with the y-axis, while the slope represented (faK)^−1.

[3] = target: T2, full-length human Tau (hTau40) (Homo sapiens, UniProt P10636); experiment: Tau oligomerization inhibition assay (heparin-induced, thioflavin S fluorescence); type: biochemical
T2 construct: The full-length human Tau (hTau40) was expressed in a transformed E. coli BL21 (DE3) strain; made in house; host or cells: E. coli BL21 (DE3)
T2 sequence (P10636 1-441 isoform P10636-8): as above
Experimental: Tau oligomerization inhibition assay was performed at 37 °C in 96-well plates by monitoring thioflavin-S fluorescence at 520 nm after excitation at 440 nm using a microplate reader (POLARstar Omega system, BMG Labtech, Paris, France). The Tau oligomerization process was induced by heparin. […] The plates were shaken at 200 rpm for 10 s before each measurement. The real value of fluorescence at the plateau was determined using SciDAVis v1.23 software. Data were fitted to the SciDAVis built-in ExpGrowth equation by means of nonlinear least-squares regression analysis. Y = Y0 + A × exp(x/t)(1)
The unscaled Levenberg–Marquardt algorithm was used, and initial values were given to Y0, A, and t. The final Y0 value of the model corresponds to the plateau value. The plateau values were then used to calculate the Tau oligomerization inhibition percentage. The IC50 for each compound was calculated from the scatter plot of Tau oligomerization inhibition (in percentage) as a function of log10 of compound concentration. The IC50 value (in µM) thus corresponds to ten raised to the power of […].

U138 glioblastoma cells = experiment: MTT cell viability assay, U138; type: cell-based; conditions: Homo sapiens, U138, 72 h, mean ± SEM, read-out: IC50 (metabolic activity)
Experimental: as §1

U87 shTau cells [4] = experiment: Mitotic index by high-content imaging, U87 shTau; type: cell-based, human; conditions: 48 h, 5-times IC50 of compounds
Experimental: (§2) For scoring mitotic indexes, an automated high-content screening confocal microscopy approach was employed to identify cells undergoing mitosis from a large population of cells. For this, cells nuclei were stained with DAPI. Briefly, fibronectin-coated clear-glass-bottom black 96-well imaging plates were seeded with 100 µL of cell suspension (60,000 cell.mL^−1) in each well, with both U87 shCTRL and U87 ShTau cell lines. Cells were treated with 5-times IC50 of compounds for 48 h, then they were fixated inside the palates with 4% formaldehyde (in PBS pH 7.4) for 20 min at room temperature, permeabilized with PBS-Triton X-100 0.5% for 10 min at room temperature. DNA was then stained with DAPI (10 µg.mL^−1) for 5 min at room temperature and in the darkness. After being washed, cells were kept in PBS at 4 °C and imaged while in PBS. Automated confocal microscopy was carried out using an Opera Phenix (PerkinElmer) high-content screening microscope using a 20× Air/0.4 NA air objective. For each condition, 6 wells were prepared and a total of 61 fields were acquired for each well. Image analysis was performed using Harmony high-content analysis v4.8 software and PhenoLOGIC Machine Learning technology, which uses a learn-by-example approach. As a first step, nuclei were segmented and multiple parameters for these nuclei were calculated using Harmony v4.8 software building blocks. After training, PhenoLOGIC Machine Learning then selects the best parameters to detect nuclei undergoing the M phase of mitosis. From this, the mitotic index of each condition was calculated by dividing the number of cells undergoing mitosis over the total number of cells.

U87 shCTRL cells [5] = experiment: Cell cycle by flow cytometry (propidium iodide), U87 shCTRL; type: cell-based, human; conditions: 48 h, compounds 10 µM, NOC 1 µM
Experimental: (§3) Measurements of cell cycle from DNA content were performed by flow cytometry as described before. Briefly, 4.10^5 cells in exponential growth were seeded in 6-well plates. After 24 h, they were treated with 10 µM of compounds for 48 h. Nocodazole was used as a positive control with a concentration of 1 µM. The trypsinized cells were harvested and then centrifuged (1200 rpm, 5 min, at room temperature). The cell pellet was resuspended in 1 mL of PBS 1× at 4 °C, and then an extra 4 mL of cold PBS was added to wash the pellet. Cells were then centrifuged again (1200 rpm, 5 min, at 4 °C). To fixate the cells, the pellet was resuspended in 100 µL of cold 70% ethanol, then an additional 900 µL was added and cells were incubated for 30 min at −20 °C. After that, 9 mL of cold PBS was added, and cells were centrifuged (2000 rpm, 5 min, at 4 °C) to remove ethanol. The cell pellet was then resuspended in the staining mix containing 50 µg.mL^−1 of propidium iodide (Molecular Probes, Paris, France) and 100 µg.mL^−1 of RNAse A (Sigma-Aldrich, Saint-Quentin-Fallavier, France) in PBS for 20 min at room temperature in darkness. Samples were analyzed on a Beckman–Coulter–Gallios flow cytometer using the Kaluza for Gallios Acquisition v1.0 software. Propidium iodide was excited at 488 nm, and fluorescence was analyzed at 620 nm on channel FL-3. For the analysis, there is considerable overlap between early S phase and G1 and between late S phase and G2/M due to broadening of the distribution caused by variability in the staining of the cells and instrumental variability. Therefore, the percentages of cells in the sub-G1, G1, S, and G2/M phases of the cell cycle were calculated using the Watson et al. algorithm for cell cycle analysis in Kaluza for Gallios Analysis v2.1 software. The software automatically adjusted gates based on PI median fluorescence intensity of the cells and their frequency among total cells. The number of cells in each phase was divided by the total number of analyzed cells, and the values were reported as percentage of the total cells for each cell cycle phase.

U87 shCTRL cells [6] = experiment: Mitotic index by high-content imaging, U87 shCTRL; type: cell-based, human; conditions: 48 h, 5-times IC50 of compounds
Experimental: as §2

U87 shTau cells [7] = experiment: Cell cycle by flow cytometry (propidium iodide), U87 shTau; type: cell-based, human; conditions: 48 h, compounds 10 µM, NOC 1 µM
Experimental: as §3

[8] = system: Caco-2 colon adenocarcinoma cells; experiment: MTT cell viability assay, Caco-2; type: cell-based; conditions: Homo sapiens, Caco-2 (not expressing Tau), 72 h, mean ± SEM, read-out: IC50 (metabolic activity)
Experimental: as §1

mature Tau aggregates = target: T3, mature Tau aggregates (Homo sapiens, UniProt P10636); experiment: Dissolution of preformed (mature) Tau aggregates, ThS fluorescence; type: biochemical; conditions: 10, 30 and 100 µM added to ThS-labelled aggregates after 8 h, 37 °C
T3 construct: The full-length human Tau (hTau40) was expressed in a transformed E. coli BL21 (DE3) strain; made in house; host or cells: E. coli BL21 (DE3)
T3 sequence (P10636 1-441 isoform P10636-8): as above
Experimental: Moreover, we performed a qualitative study of the ability of QCT and compounds 1, 5, and 9 to dissolve preformed Tau aggregates (Figure 3).
Eight-hour time courses were performed with ThS to monitor heparin-induced Tau aggregation by spectrofluorometry at 520 nm (37 °C), then 10, 30, and 100 µM of compounds (curves b–d) were added to the ThS-labelled Tau aggregates. A control was performed without compound (curve a).

R3 peptide = system: R3 peptide; design: method as in PMID 34743390; conditions: 10 µM, AFM analysis; cited from earlier work
[9] = 2 µM Tau, heparin-induced, ThS, buffer A pH 6.9, 25 °C per table footnote (37 °C in method), mean ± SD, read-out: Inhibition of Aggregation IC50

IC50 (T98G glioblastoma cells) | IC50 (U87 glioblastoma cells) | IC50 (U251 glioblastoma cells) | Equilibrium Binding Constants to Tau, fA (Tyr accessible fraction) [2] | Kd [2] | IC50 [3, 9] | IC50 (U138 glioblastoma cells) | IC50 ([1]; Homo sapiens, U87, U251, U138, T98G, 72 h MTT, read-out: IC50 among the Tau-expressing GBM cell models) | SMILES | efficacy fold higher than 13 and 15 ([1]; GBM cells) | mitotic index (U87 shTau cells [4]) | %G1 (cells in G1 phase) (U87 shCTRL cells [5]) | %G2/M (cells in G2/M phase) (U87 shCTRL cells [5]) | mitotic index (U87 shCTRL cells [6]) | %G1 (cells in G1 phase) (U87 shTau cells [7]) | %G2/M (cells in G2/M phase) (U87 shTau cells [7]) | IC50 [8] | Ability to dissolve mature (preformed) Tau aggregates (mature Tau aggregates) | R3 peptide fibrillation (R3 peptide) | IC50 [3]
2.7 ± 0.5 µM | 1.1 ± 0.2 µM | 1.3 ± 0.5 µM | 0.21 ± 0.04 | 4.2 ± 0.3 µM | 11.7 ± 2 µM | 1.4 ± 0.2 µM |  | COc1c(-c2cccc(F)c2)oc2ccc3nc(N)sc3c2c1=O [Compound 14] | up to 6 fold |  |  |  |  |  |  |  |  |  | 
 |  |  |  |  |  |  |  | COC(=O)Nc1nc2ccc(C(=O)c3cccs3)cc2[nH]1 [NOC, nocodazole, reference compound] |  | 23.0 ± 4.01% | 10 ± 3% | 82 ± 6% | 9.38 ± 3.55% | 9 ± 7% | 77 ± 4% |  |  |  | 
4.2 ± 0.7 µM | 22.4 ± 5.2 µM | 6.7 ± 2.2 µM | 0.39 ± 0.08 | 7 ± 2.3 µM | 92 ± 9.6 µM | 6.4 ± 1.3 µM | 4.2 to 22.4 µM | Nc1nc(-c2ccc3oc(-c4ccccc4)cc(=O)c3c2)cs1 [Compound 1] |  |  |  |  |  |  |  | 33.2 ± 13.3 µM | able to dissolve mature Tau aggregates |  | 

SMILES | IC50 (T98G glioblastoma cells) | IC50 (U87 glioblastoma cells) | IC50 (U251 glioblastoma cells) | Equilibrium Binding Constants to Tau, fA (Tyr accessible fraction) [2] | Kd [2] | IC50 [3, 9] | IC50 (U138 glioblastoma cells) | IC50 ([1]; Homo sapiens, U87, U251, U138, T98G, 72 h MTT, read-out: IC50 among the Tau-expressing GBM cell models) | efficacy fold higher than 13 and 15 ([1]; GBM cells) | mitotic index (U87 shTau cells [4]) | %G1 (cells in G1 phase) (U87 shCTRL cells [5]) | %G2/M (cells in G2/M phase) (U87 shCTRL cells [5]) | mitotic index (U87 shCTRL cells [6]) | %G1 (cells in G1 phase) (U87 shTau cells [7]) | %G2/M (cells in G2/M phase) (U87 shTau cells [7]) | IC50 [8] | Ability to dissolve mature (preformed) Tau aggregates (mature Tau aggregates) | R3 peptide fibrillation (R3 peptide) | IC50 [3]
O=c1c(O)c(-c2ccc(O)c(O)c2)oc2cc(O)cc(O)c12 [QCT, quercetin, reference compound] | > 100 µM | > 100 µM | > 100 µM | 0.12 ± 0.04 | 2.4 ± 0.6 µM |  | > 100 µM |  |  |  |  |  |  |  |  | > 100 µM | able to dissolve mature Tau aggregates | abrogated R3 peptide fibrillation | 17.3 ± 0.6 µM
